Laboratory results from article PMC11956005 (Journal of Medicinal Chemistry, 2025).
Where no end group is shown, it is not given here. [ ]: non-standard residue; d: D form. The star is where a group is joined. X1 = CCCCCCCCCCCCCCCC(=O)N[C@@H](CCC(=O)NCCCC[C@H](NC(=O)CCOCCOCCOCCOCCNC(=O)CNC(=O)CCN1C(=O)CC(*)C1=O)C(=O)NCCOCCOCCOCCOCCC(=O)N[C@@H](CCCCNC(=O)CC[C@H](NC(=O)CCCCCCCCCCCCCCCCC(=O)O)C(=O)O)C(=O)OC)C(=O)O; Aib = CC(C)(N)C(=O)O

Assays:
db/db mice = assay: Blood glucose control after a single subcutaneous dose in db/db mice; assay type: in vivo, mouse; details: single s.c. dose, 72 h postinjection
[1] = native GLP-1; cited from earlier work

Compound | blood sugar reduction (Δglucose from baseline) (db/db mice) | intravenous half-life [1]
H[Aib]EGTFTSDVSSYLEGQAAKEFIAWLVRGRGGGGSGGGGSGGGGSGC(X1) [TE-8131] | -8.2 ± 1.4 mmol/L | 
CC[C@H](C)[C@H](NC(=O)[C@H](Cc1ccccc1)NC(=O)[C@H](CCC(=O)O)NC(=O)[C@H](CCCCN)NC(=O)[C@H](C)NC(=O)[C@H](C)NC(=O)[C@H](CCC(N)=O)NC(=O)CNC(=O)[C@H](CCC(=O)O)NC(=O)[C@H](CC(C)C)NC(=O)[C@H](Cc1ccc(O)cc1)NC(=O)[C@H](CO)NC(=O)[C@H](CO)NC(=O)[C@@H](NC(=O)[C@H](CC(=O)O)NC(=O)[C@H](CO)NC(=O)[C@@H](NC(=O)[C@H](Cc1ccccc1)NC(=O)[C@@H](NC(=O)CNC(=O)[C@H](CCC(=O)O)NC(=O)[C@H](C)NC(=O)[C@@H](N)Cc1c[nH]cn1)[C@@H](C)O)[C@@H](C)O)C(C)C)C(=O)N[C@@H](C)C(=O)N[C@@H](Cc1c[nH]c2ccccc12)C(=O)N[C@@H](CC(C)C)C(=O)N[C@H](C(=O)N[C@@H](CCCCN)C(=O)NCC(=O)N[C@@H](CCCN=C(N)N)C(=O)NCC(=O)O)C(C)C [GLP-1, glucagon-like peptide-1] |  | 1.5 to 2 min
